Data: patent publication US20250034136A1 (Nimbus Wadjet, Inc., priority 2023, published 2025)

Assays:
[1] = target: WRN (BV08), human Werner helicase (Uniprot Q14191, amino acids 517-1235 with L1074F point mutation) (Homo sapiens (Human), UniProt Q14191, L1074F); experiment: WRN (BV08) ADP-Glo assay; type: biochemical; settings: class symbols A-E, read-out: ADP-Glo_hWRN_IC50
[2] = system: p21 induction in HCT116 cells; experiment: p21 induction in HCT116 cells; type: cell-based; settings: Homo sapiens, HCT-116, 24 h, HCT116 cells, 24 h compound incubation; read-out: P21_EC50
How it was run: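 EC50 from non-linear curve fit of p21 immunofluorescence (800 nm), with GAPDH (700 nm) read alongside. DMSO and a reference WRN inhibitor served as low and high controls. Cells (2,000/well) got 11 compound concentrations in duplicate for 24 h at 37 °C.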

WRN (BV08), human Werner helicase (Uniprot Q14191, amino acids 517-1235 with L1074F point mutation), sequence (Q14191 other isoform, or with tags, fused parts or gaps L1074F (already in the parent)): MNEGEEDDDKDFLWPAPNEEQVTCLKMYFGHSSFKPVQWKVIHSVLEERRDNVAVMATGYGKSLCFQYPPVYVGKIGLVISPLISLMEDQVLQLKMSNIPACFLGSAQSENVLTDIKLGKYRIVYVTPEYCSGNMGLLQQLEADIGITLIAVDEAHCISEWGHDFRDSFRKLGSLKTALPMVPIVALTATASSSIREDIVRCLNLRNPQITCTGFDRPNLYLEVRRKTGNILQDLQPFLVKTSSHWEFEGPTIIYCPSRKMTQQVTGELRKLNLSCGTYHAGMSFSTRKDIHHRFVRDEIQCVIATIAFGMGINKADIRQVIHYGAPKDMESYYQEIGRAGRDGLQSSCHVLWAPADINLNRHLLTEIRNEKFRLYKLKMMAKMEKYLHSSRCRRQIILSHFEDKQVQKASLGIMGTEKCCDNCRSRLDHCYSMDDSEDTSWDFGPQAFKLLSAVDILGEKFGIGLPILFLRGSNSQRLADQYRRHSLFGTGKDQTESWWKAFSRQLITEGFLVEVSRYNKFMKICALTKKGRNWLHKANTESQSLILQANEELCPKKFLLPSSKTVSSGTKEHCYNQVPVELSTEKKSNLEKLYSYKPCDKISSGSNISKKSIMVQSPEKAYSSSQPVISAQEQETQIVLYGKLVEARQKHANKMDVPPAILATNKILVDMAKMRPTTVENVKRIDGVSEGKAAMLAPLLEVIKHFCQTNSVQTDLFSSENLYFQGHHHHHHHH

SMILES | IC50 [1] | EC50 [2]
CCc1c(N2CCN(C(=O)c3ncnc(C)c3O)C(CO)C2)c(=O)c2nc(N(C)C)cnc2n1CC(=O)Nc1ccc(C(F)(F)F)cc1Cl (centres unmarked) [I-178, N-[2-chloro-4-(trifluoromethyl)phenyl]-2-[2-(dimethylamino)-6-ethyl-7-[4-(5-hydroxy-6-methylpyrimidine-4-carbonyl)-3-(hydroxymethyl)piperazin-1-yl]-8-oxo-5H,8H-pyrido[2,3-b]pyrazin-5-yl]acetamide] | 5 to 50 nM | > 5000 nM
CCc1c(N2CCN(C(=O)c3ncnc(C)c3O)CC2)c(=O)c2nc(N(C3CC3)C3CC3)cnc2n1CC(=O)Nc1ccc(C(F)(F)F)cc1Cl [I-179, N-[2-chloro-4-(trifluoromethyl)phenyl]-2-[2-(dicyclopropylamino)-6-ethyl-7-[4-(5-hydroxy-6-methylpyrimidine-4-carbonyl)piperazin-1-yl]-8-oxo-5H,8H-pyrido[2,3-b]pyrazin-5-yl]acetamide] | 5 to 50 nM | 2000 to 5000 nM
CCc1c(N2CCN(C(=O)c3ncnc(C)c3O)CC2)c(=O)c2nc(C=C3CC(C)(O)C3)cnc2n1CC(=O)Nc1ccc(C(F)(F)F)cc1Cl (centres unmarked) [I-180, N-[2-chloro-4-(trifluoromethyl)phenyl]-2-{6-ethyl-2-[(3-hydroxy-3-methylcyclobutylidene)methyl]-7-[4-(5-hydroxy-6-methylpyrimidine-4-carbonyl)piperazin-1-yl]-8-oxo-5H,8H-pyrido[2,3-b]pyrazin-5-yl}acetamide] | 5 to 50 nM | 500 to 2000 nM
CCc1c(N2CCN(C(=O)c3ncnc(C)c3O)[C@H]3CC[C@@H]32)c(=O)c2nc(OC3CCC3)cnc2n1CC(=O)Nc1ccc(C(F)(F)F)cc1Cl [I-181, N-[2-chloro-4-(trifluoromethyl)phenyl]-2-{2-cyclobutoxy-6-ethyl-7-[(1S,6S)-5-(5-hydroxy-6-methylpyrimidine-4-carbonyl)-2,5-diazabicyclo[4.2.0]octan-2-yl]-8-oxo-5H,8H-pyrido[2,3-b]pyrazin-5-yl}acetamide] | 5 to 50 nM | < 500 nM
CCc1c(N2CCN(C(=O)c3ncnc(C)c3O)[C@H]3CC[C@@H]32)c(=O)c2nc(OC)cnc2n1CC(=O)Nc1ccc(C(F)(F)F)cc1Cl [I-182, N-[2-chloro-4-(trifluoromethyl)phenyl]-2-{6-ethyl-7-[(1S,6S)-5-(5-hydroxy-6-methylpyrimidine-4-carbonyl)-2,5-diazabicyclo[4.2.0]octan-2-yl]-2-methoxy-8-oxo-5H,8H-pyrido[2,3-b]pyrazin-5-yl} acetamide] | ≤ 5 nM | < 500 nM
CCc1c(N2CCN(C(=O)c3c(O)cnnc3OC)[C@H]3CC[C@@H]32)c(=O)c2nc(N(C)C)cnc2n1CC(=O)Nc1ccc(C(F)(F)F)cc1Cl [I-183, N-[2-chloro-4-(trifluoromethyl)phenyl]-2-[2-(dimethylamino)-6-ethyl-7-[(1S,6S)-5-(5-hydroxy-3-methoxypyridazine-4-carbonyl)-2,5-diazabicyclo[4.2.0]octan-2-yl]-8-oxo-5H,8H-pyrido[2,3-b]pyrazin-5-yl]acetamide] | 5 to 50 nM | > 5000 nM
CCc1c(N2CCN(C(=O)c3cnn(C)c3)[C@H]3CC[C@@H]32)c(=O)c2nc(N(C)C)cnc2n1CC(=O)Nc1ccc(C(F)(F)F)cc1Cl [I-184, N-[2-chloro-4-(trifluoromethyl)phenyl]-2-[2-(dimethylamino)-6-ethyl-7-[(1S,6S)-5-(1-methyl-1H-pyrazole-4-carbonyl)-2,5-diazabicyclo[4.2.0]octan-2-yl]-8-oxo-5H,8H-pyrido[2,3-b]pyrazin-5-yl]acetamide] | 5 to 50 nM | 2000 to 5000 nM
CCc1c(N2CCN(C(=O)c3ncnc(C)c3O)C[C@@H]2C)c(=O)c2nc(N(C)C)cnc2n1CC(=O)Nc1ccc(S(F)(F)(F)(F)F)cc1Cl [I-185, N-[2-chloro-4-(pentafluoro-lambda6-sulfanyl)phenyl]-2-[2-(dimethylamino)-6-ethyl-7-[(2S)-4-(5-hydroxy-6-methylpyrimidine-4-carbonyl)-2-methylpiperazin-1-yl]-8-oxo-5H,8H-pyrido[2,3-b]pyrazin-5-yl]acetamide] | 5 to 50 nM | < 500 nM
CCc1c(N2CCN(C(=O)c3ncnc(C)c3O)CC2)c(=O)c2nc(NCC3CC3)cnc2n1CC(=O)Nc1ccc(C(F)(F)F)cc1Cl [I-186, N-[2-chloro-4-(trifluoromethyl)phenyl]-2-{2-[(cyclopropylmethyl)amino]-6-ethyl-7-[4-(5-hydroxy-6-methylpyrimidine-4-carbonyl)piperazin-1-yl]-8-oxo-5H,8H-pyrido[2,3-b]pyrazin-5-yl}acetamide] | 5 to 50 nM | 2000 to 5000 nM
CCc1c(N2CCN(C(=O)c3ncnc(C)c3O)C[C@@H]2C)c(=O)c2nc(N3CCC3)cnc2n1CC(=O)Nc1ccc(C(F)(F)F)cc1Cl [I-187, 2-[2-(azetidin-1-yl)-6-ethyl-7-[(2S)-4-(5-hydroxy-6-methylpyrimidine-4-carbonyl)-2-methylpiperazin-1-yl]-8-oxo-5H,8H-pyrido[2,3-b]pyrazin-5-yl]-N-[2-chloro-4-(trifluoromethyl)phenyl]acetamide] | 5 to 50 nM | 500 to 2000 nM
CCc1c(N2CCN(C(=O)c3ncnc(C)c3O)C[C@@H]2C)c(=O)c2nc(N3CC[C@H]3COC)cnc2n1CC(=O)Nc1ccc(C(F)(F)F)cc1Cl [I-188, N-[2-chloro-4-(trifluoromethyl)phenyl]-2-{6-ethyl-7-[(2S)-4-(5-hydroxy-6-methylpyrimidine-4-carbonyl)-2-methylpiperazin-1-yl]-2-[(2S)-2-(methoxymethyl)azetidin-1-yl]-8-oxo-5H,8H-pyrido[2,3-b]pyrazin-5-yl}acetamide] | 5 to 50 nM | 500 to 2000 nM

More lines, now with the values ahead:

IC50 [1] | EC50 [2] | SMILES
5 to 50 nM | 500 to 2000 nM | CCc1c(N2CCN(C(=O)c3ncnc(C)c3O)C[C@@H]2C)c(=O)c2nc(N3CC[C@@H]3COC)cnc2n1CC(=O)Nc1ccc(C(F)(F)F)cc1Cl [I-189, N-[2-chloro-4-(trifluoromethyl)phenyl]-2-{6-ethyl-7-[(2S)-4-(5-hydroxy-6-methylpyrimidine-4-carbonyl)-2-methylpiperazin-1-yl]-2-[(2R)-2-(methoxymethyl)azetidin-1-yl]-8-oxo-5H,8H-pyrido[2,3-b]pyrazin-5-yl}acetamide]
5 to 50 nM | < 500 nM | CCc1c(N2CCN(C(=O)c3ncnc(C)c3O)C[C@@H]2C)c(=O)c2nc(N3CCC3)cnc2n1CC(=O)Nc1ccc(S(F)(F)(F)(F)F)cc1Cl [I-190, 2-[2-(azetidin-1-yl)-6-ethyl-7-[(2S)-4-(5-hydroxy-6-methylpyrimidine-4-carbonyl)-2-methylpiperazin-1-yl]-8-oxo-5H,8H-pyrido[2,3-b]pyrazin-5-yl]-N-[2-chloro-4-(pentafluoro-lambda6-sulfanyl)phenyl]acetamide]
5 to 50 nM | 500 to 2000 nM | CCc1c(N2CCN(C(=O)c3ncnc(C)c3O)C[C@@H]2CC)c(=O)c2nc(N(C)C)cnc2n1CC(=O)Nc1ccc(C(F)(F)F)cc1Cl [I-191, N-[2-chloro-4-(trifluoromethyl)phenyl]-2-[2-(dimethylamino)-6-ethyl-7-[(2S)-2-ethyl-4-(5-hydroxy-6-methylpyrimidine-4-carbonyl)piperazin-1-yl]-8-oxo-5H,8H-pyrido[2,3-b]pyrazin-5-yl]acetamide]
≤ 5 nM | < 500 nM | CCc1c(N2CCN(C(=O)c3ncc4c(c3O)CCO4)CC2)c(=O)c2nc(N(C)C3CC3)cnc2n1CC(=O)Nc1ccc(C(F)(F)F)cc1Cl [I-194, N-[2-chloro-4-(trifluoromethyl)phenyl]-2-{2-[cyclopropyl(methyl)amino]-6-ethyl-7-(4-{4-hydroxy-2H,3H-furo[2,3-c]pyridine-5-carbonyl}piperazin-1-yl)-8-oxo-5H,8H-pyrido[2,3-b]pyrazin-5-yl}acetamide]
5 to 50 nM | 2000 to 5000 nM | CCc1c(N2CCN(C(=O)c3ncnc(C)c3O)CC2)c(=O)c2nc(OC3CC3)cnc2n1CC(=O)Nc1ccc(C(F)(F)F)cc1Cl [I-195, N-[2-chloro-4-(trifluoromethyl)phenyl]-2-{2-cyclopropoxy-6-ethyl-7-[4-(5-hydroxy-6-methylpyrimidine-4-carbonyl)piperazin-1-yl]-8-oxo-5H,8H-pyrido[2,3-b]pyrazin-5-yl}acetamide]
50 to 100 nM | > 5000 nM | CCc1c(N2CCN(C(=O)c3ncnc(C)c3O)[C@@H](C(F)F)C2)c(=O)c2nc(N(C)C)cnc2n1CC(=O)Nc1ccc(C(F)(F)F)cc1Cl [I-197, N-[2-chloro-4-(trifluoromethyl)phenyl]-2-{7-[(3R)-3-(difluoromethyl)-4-(5-hydroxy-6-methylpyrimidine-4-carbonyl)piperazin-1-yl]-2-(dimethylamino)-6-ethyl-8-oxo-5H,8H-pyrido[2,3-b]pyrazin-5-yl}acetamide]
5 to 50 nM | < 500 nM | CCc1c(N2CCN(C(=O)c3ncnc(C)c3O)[C@H]3CC[C@@H]32)c(=O)c2nc(N(C)C)cnc2n1CC(=O)Nc1ccc(OC(F)(F)F)cc1Cl [I-199, N-[2-chloro-4-(trifluoromethoxy)phenyl]-2-[2-(dimethylamino)-6-ethyl-7-[(1S,6S)-5-(5-hydroxy-6-methylpyrimidine-4-carbonyl)-2,5-diazabicyclo[4.2.0]octan-2-yl]-8-oxo-5H,8H-pyrido[2,3-b]pyrazin-5-yl]acetamide]
5 to 50 nM | < 500 nM | CCc1c(N2CCN(C(=O)c3ncnc(C)c3O)[C@H]3CC[C@@H]32)c(=O)c2nc(N(C)C)cnc2n1CC(=O)Nc1ccc(S(F)(F)(F)(F)F)cc1Cl [I-200, N-[2-chloro-4-(pentafluoro-lambda6-sulfanyl)phenyl]-2-[2-(dimethylamino)-6-ethyl-7-[(1S,6S)-5-(5-hydroxy-6-methylpyrimidine-4-carbonyl)-2,5-diazabicyclo[4.2.0]octan-2-yl]-8-oxo-5H,8H-pyrido[2,3-b]pyrazin-5-yl]acetamide]
